From patent US10646479B2, “Use of N-(4-iodobenzoylamino)-5-ethyl-1,2,3,6-tetrahydropyridine as a treatment for cancer” (Florida A&M University, priority 2018, dated 2020) come the findings set out here.

Holding throughout (assay type): cell-based, human
One assay concerns Ishikawa cell line. In words: CellTiter-Glo (CTG) luminescent cell viability assay, Ishikawa cells. The following applies: for IC50: Ishikawa endometrial adenocarcinoma cells, CTG viability. The method, then: (§1) This compound was evaluated against three types of cancer cells: Ishikawa, MDA-MB-231, and MCF-7 using the CellTiter-Glo (CTG) luminescent cell viability assay. Ishikawa cell line is an endometrial adenocarcinoma isolated from a person. MDA-MB-231 is a triple negative breast cancer cell line isolated from a person. MCF-7 is an estrogen receptor positive breast cancer cell line isolated from a person.
A general note: Cellular ATP, detected with luciferase, serves as a proxy for viable cell number.

The next assay concerns MCF-7 cell line. In words: CellTiter-Glo (CTG) luminescent cell viability assay, MCF-7 cells. The following applies: for IC50: MCF-7 estrogen receptor positive breast cancer cells, CTG viability. The method, then: as §1
In the next assay the test system is MDA-MB-231 cell line. The experiment in a line: CellTiter-Glo (CTG) luminescent cell viability assay, MDA-MB-231 cells. Particulars: for IC50: MDA-MB-231 triple negative breast cancer cells, CTG viability. The method, then:
as §1

Take 4-Hydroxytamoxifen [reference compound]: the IC50 (commonly the midpoint of a concentration-inhibition curve) was 26.4 µM in the assay on Ishikawa cell line, 6.78 µM in the assay with MCF-7 cell line and 23.1 µM with MDA-MB-231 cell line.
With `CCC1=CCCN(NC(=O)c2ccc(I)cc2)C1` [EH-1-40, N-(4-iodobenzoylamino)-5-ethyl-1,2,3,6-tetrahydropyridine], the IC50 came out at 2.93 µM in the assay with Ishikawa cell line (Homo sapiens); 1.25 µM in the assay with MCF-7 cell line (Homo sapiens, MCF7); 5.67 µM in the assay on MDA-MB-231 cell line (Homo sapiens). Further, the “activity compared to Tamoxifen and 4-Hydroxytamoxifen” value in the assay on Ishikawa cell line (Ishikawa cell line), in the assay on MCF-7 cell line (MCF-7 cell line) and in the assay with MDA-MB-231 cell line (MDA-MB-231 cell line) was “better activity” throughout.
